Experimental data reported in patent US10119122B2, “Differentiation and expansion of endothelial cells from pluripotent stem cells and the in vitro formation of vasculature like structures” (Academisch Ziekenhuis Leiden, priority 2013, dated 2018).

System: hPSCs
Experiment: Monolayer endothelial differentiation of hPSCs in defined medium, flow cytometry at day 10
Format: cell-based, human
Conditions: VEGF together with SB-431542 5 μM from day 3, versus VEGF only; average over several cell lines
Source text: hiPSC lines were generated from Fib or BOECs using conditional lentiviral vectors containing the four transcription factors oct4, c-myc, Klf4 and Sox2, and characterized as described previously (Dambrot et al., 2013; Freund et al., 2008; Orlova et al., manuscript in preparation). hiPSCs and hESC (line HES-NL4; (van de Stolpe et al., 2005)) were routinely maintained on growth factor reduced MATRIGEL®-(BD, 354230) coated plates in mTeSR media (StemCell Technologies, 05850) and passaged mechanically. Differentiation was induced three days after passaging colonies by replacing mTeSR medium with the differentiation media based on BPEL (without PVA) (Ng et al., 2008) with timed addition of the following growth factors: 25 ng/ml ActivinA (Miltenyi, 130-095-547), 30 ng/ml BMP4 (Miltenyi, 130-095-549), VEGF165 (R&D Systems, 293-VE) and small molecule inhibitor CHIR99021 (Tocris, 4423). At day 3 and day 7 of differentiation, the media was refreshed with BPEL containing VEGF and 5 μM SB43152 (Tocris, 1614) only.
Cells were dissociated with TrypLE Select and washed once with the FACs buffer with the 10% FBS, followed by the single wash with the FACs buffer. […] In some experiment samples were analyzed with the MACSQuant VYB (Miltenyi). […]

## NC(=O)c1ccc(-c2nc(-c3ccc4c(c3)OCO4)c(-c3ccccn3)[nH]2)cc1 [SB431542, reference compound]
  increase in the yield of ECs: 30%
